Data: PubChem BioAssay (NCI)
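Growth conditions: 96-well plates. Treatment: test compound, 48 hours, 5 concentrations. Analysis: linear interpolation between bracketing concentrations; unreached endpoints set to highest concentration. The concentration for 50% growth inhibition is given as GI50. Definition used: TGI = concentration required for complete inhibition of growth.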 Where a SMILES comes first, the peptide text is derived from it. Bridges are numbered along the chain shown (N, C = ends). [ ]: non-standard residue; d: D form. ξ: configuration not given here. ξThr(3R) = C[C@@H](O)C(N)C(=O)O; S5 = C=CCCC[C@](C)(N)C(=O)O

Columns and labels:
Experiment in all cases: inhibition of tumour cell growth, NCI panel, 48 h
OVCAR-5 ovarian = system: OVCAR-5 ovarian
786-0 renal = system: 786-0 renal
DU-145 prostate = system: DU-145 prostate
MOLT-4 leukemia = system: MOLT-4 leukemia
SK-MEL-5 melanoma = system: SK-MEL-5 melanoma
IGROV1 ovarian = system: IGROV1 ovarian
UO-31 renal = system: UO-31 renal
SK-MEL-2 melanoma = system: SK-MEL-2 melanoma
OVCAR-3 ovarian = system: OVCAR-3 ovarian
T-47D breast = system: T-47D breast

Structure (SMILES) | GI50 (OVCAR-5 ovarian) | TGI (OVCAR-5 ovarian) | GI50 (786-0 renal) | TGI (786-0 renal) | GI50 (DU-145 prostate) | TGI (DU-145 prostate) | GI50 (MOLT-4 leukemia) | TGI (MOLT-4 leukemia) | GI50 (SK-MEL-5 melanoma) | TGI (SK-MEL-5 melanoma) | GI50 (IGROV1 ovarian) | TGI (IGROV1 ovarian) | GI50 (UO-31 renal) | TGI (UO-31 renal) | GI50 (SK-MEL-2 melanoma) | TGI (SK-MEL-2 melanoma) | GI50 (OVCAR-3 ovarian) | TGI (OVCAR-3 ovarian) | GI50 (T-47D breast) | TGI (T-47D breast)
COc1cc(/C=C/C(=O)/C=C/c2cc3ccc(Cl)cc3n(Cc3ccccc3)c2=O)ccc1O | 2.65 µM | 5.78 µM | 1.78 µM | 3.58 µM | 1.87 µM | 5.47 µM | 1.89 µM | > 100 µM | 1.69 µM | 3.17 µM | 1.74 µM | 4.53 µM | 1.34 µM | 2.64 µM | 1.92 µM | 4.97 µM | 0.71 µM | 2.43 µM | 2.02 µM | 11.5 µM
NC(Cc1c[nH]c2ccc(F)cc12)C(=O)O (stereo unspecified) | 814 µM | > 2500 µM | 1200 µM | > 2500 µM | 1310 µM | > 2500 µM | 1030 µM | > 2500 µM | 375 µM | 711 µM |  |  | 444 µM | 1950 µM | 2250 µM | > 2500 µM | 724 µM | > 2500 µM | 1730 µM | > 2500 µM
O=c1c2ccccc2nc(-c2ccccc2Cl)n1-c1nnc(C(F)(F)F)s1 | 4.33 µM | 43.8 µM | 3.18 µM | 11.4 µM | 5.03 µM | > 100 µM | 3.99 µM | 20.4 µM | 1.99 µM | 4.91 µM | 4.17 µM | > 100 µM | 2.75 µM | 11.6 µM | 2.72 µM | 6.27 µM | 3.25 µM | 11.4 µM | 3.76 µM | > 100 µM
CCCCCCCCCCCCCCCCCCOc1ccccc1CC(=O)OCC[N+](CC)(CC)CC | 2 µM | 8.52 µM | 1.64 µM | 7.54 µM | 2.07 µM | 7.99 µM | 1.26 µM | 3.07 µM | 0.942 µM | 1.75 µM | 0.923 µM | 1.97 µM | 5.52 µM | 14.5 µM | 1.28 µM | 3.13 µM | 1.73 µM | 6.33 µM | 1.48 µM | 8.16 µM
COc1c(O)cc2c(c1O)C(=O)C1=C(CCCC1)C2=O |  | > 100 µM |  | 49.4 µM |  | 74.3 µM |  | 23 µM |  | 66 µM |  | 43.8 µM |  | 43.8 µM |  | > 100 µM |  | > 100 µM |  | 50.2 µM
COc1cc(/C=C/C(=O)N2CCC=CC2=O)cc(OC)c1OC | 2.77 µM | 8.68 µM | 2.41 µM | 7.03 µM | 4.05 µM | 18.6 µM | 2.74 µM | 9.48 µM | 3.35 µM | 12 µM | 2.21 µM | 11.2 µM | 1.78 µM | 5.09 µM | 2.53 µM | 7.09 µM | 3.34 µM | 11.9 µM | 2.56 µM | 8.51 µM
CCOC(=O)/C(C#N)=C1\SS/C(=C(/C#N)C(=O)OCC)S1 | 22.4 µM | 42.8 µM | 19.2 µM | 34.1 µM | 18.2 µM | 33.6 µM | 10.8 µM | 57.8 µM | 32 µM | > 100 µM | 14.2 µM | 33 µM | 13.2 µM | 26.1 µM | 18.7 µM | 40.2 µM | 14.5 µM | 28.8 µM | 17.9 µM | 48.2 µM
CCN(CC)c1ccc(C2NC(=O)c3ccccc3N2)cc1 (stereo unspecified) |  | > 100 µM |  | > 41.2 µM |  | > 100 µM |  | > 100 µM |  | > 100 µM |  | > 100 µM |  | > 100 µM |  | > 100 µM |  | > 100 µM |  | > 100 µM
O=C(COc1ccc(OCC(=O)N2C(=O)CN(c3ccccc3)C2=S)cc1)N1C(=O)CN(c2ccccc2)C1=S | > 25 µM | > 100 µM | > 25 µM | > 100 µM | > 25 µM | > 100 µM | > 100 µM | > 100 µM | > 100 µM | > 100 µM | 29.3 µM | > 100 µM | > 25 µM | > 100 µM | > 25 µM | > 100 µM | > 25 µM | > 100 µM | > 25 µM | > 100 µM
ClCc1ccc(Cn2cnc3c(Cl)ncnc32)cc1 | 18.2 µM | 34.7 µM |  | > 20 µM | 7.3 µM | 25.5 µM | 11.8 µM | > 56.2 µM | 11.7 µM | 35.9 µM | 13.6 µM | 42 µM |  | > 21.5 µM | 19.7 µM | > 92.8 µM | 8.73 µM | 18.5 µM |  | > 100 µM
CN1CCN(c2ccc(NC(=O)c3cncnc3Nc3ccc(OCc4cccc(F)c4)c(Cl)c3)cc2)CC1 | 1.6 µM | 7.29 µM | 0.992 µM | 2.03 µM | 4.9 µM | > 50 µM | 0.907 µM | 2.28 µM | 1.55 µM | 5.2 µM | 1.78 µM | > 50 µM | 0.893 µM | 1.7 µM | 3 µM | 12.2 µM | 3.58 µM | > 50 µM | 3.63 µM | > 50 µM
CC(=O)N[C@H](C(=O)N[C@@H](CCCNC(=N)N)C(=O)N[C@@H](CCCCN)C(=O)N[C@@H](CCCNC(=N)N)C(=O)NC(C(=O)N[C@@H](CC(C)C)C(=O)N[C@@H](CCCNC(=N)N)C(=O)N[C@@]1(C)CCC/C=C\CCC[C@@](C)(C(=O)N[C@@H](CCCNC(=N)N)C(=O)N[C@@H](CCC(=O)O)C(=O)N[C@@H](CC(C)C)C(=O)N[C@H](C(=O)N[C@@H](CCC(=O)O)C(N)=O)C(C)C)NC(=O)[C@H](CCC(N)=O)NC(=O)[C@H](CC(C)C)NC(=O)[C@H](CC(C)C)NC1=O)[C@@H](C)O)C(C)C (stereo partly drawn) (Ac-VRKR[ξThr(3R)]LR[S5]LLQ[S5]RELVE-NH2; staple (Z) 8-12) | 8.96 µM | 18.1 µM | 4.2 µM | 12.6 µM | 2.68 µM | 9.2 µM | 9.85 µM | 22.9 µM | 2.01 µM | 8.43 µM |  |  | 9.2 µM | 17.5 µM | 4.73 µM | 17.2 µM | 8.16 µM | 15.7 µM | 1.05 µM | 2.68 µM
Cc1ccc(-c2nc(N3CCNCC3)c3oc(-c4ccccc4)nc3n2)cc1 | 1.68 µM | 3.36 µM | 1.77 µM | 3.25 µM | 1.74 µM | 3.19 µM | 1.91 µM | 3.67 µM |  |  | 1.87 µM | 3.64 µM | 1.43 µM | 2.78 µM | 2.64 µM | 6.01 µM | 1.96 µM | 3.48 µM | 1.81 µM | 3.83 µM
